# Data from patent US20260234217A1, “USE OF BMP RECEPTOR ALK1 INHIBITORS IN OSTEOARTHRITIS THERAPIES” (The Regents of the University of California, priority 2023, published 2026).
# “Also recorded” adds a separate entry of the source.
# Legend:
# [1] = test system: BMP-9-induced BMP reporter activity by ALK5-deficient ATDC5 cells; test: BMP-9-induced BMP signal luciferase reporter in ALK5-deficient chondrocytic cells; assay type: cell-based, mouse; details: in the presence of 2 ng/mL of rhBMP-9; read-out: median effective concentration (EC50) to block BMP activity in vitro
# Description: Ligands that bind to ALK1 at physiological concentrations are BMP9 and BMP10 (Chen et al, PNAS 2013). […] ActRIIB has 300-fold higher affinity for BMP9 than does ActRIIA (Townson et. al., J Biol Chem. 2012 Aug. 10; 287(33):27313-2). The formation of ALK1-ActRIIB complexes is associated with the elevation of levels of pSmad1/5-mediated BMP signaling in cartilage (Wang et al., PNAS 2009)[4]. […] Furthermore, since loss of ALK5 causes OA and ALK5 antagonizes ALK1, these above results provide evidence that blocking ALK1 signaling may prevent OA development.
# As described herein, the ALK1 receptor normally binds to ALK5 and/or ActRIIA in healthy chondrocytes, but in OA conditions ALK5 expression levels decline in chondrocytes and ALK1 tends to complex with ActRIIB; this ALK1/ActRIIB complex has high affinity for BMP9 and BMP10. […] BMP signaling output is monitored by a BMP signal luciferase reporter plasmid which contains a Smad1/5/8 response element in the promoter region. The biological efficacy of ALK1 antagonists is measured by their ability to inhibit BMP-9-induced BMP reporter activity by ALK5-deficient chondrocytic cells, such as ALK5-deficient ATDC5 cells. […]
# subchondral bone plate = test: Subchondral bone plate analysis in DMM mice; assay type: in vivo, mouse; details: after DMM surgery
# Description: Dissected knee joints underwent Micro-CT analysis using the Skyscan 1172 in vivo μCT scanner (Bruker micro-CT, Kontich, Belgium) at 55 kV and 181 μA, with a resolution of 10 μm. The raw data was then translated into two-dimensional cross-sectional gray scale image slices using NRecon (Bruker microCT, Kontich, Belgium). Structural parameters were then acquired from the two-dimensional images using a CT Analyzer (CT-AN, v1.10.9.0, Bruker microCT, Kontich, Belgium), including bone volume fraction (BV, mm3). The total knee osteophyte volume from the end of the distal femur to the end of the proximal tibia was compared between knees that underwent sham surgery, DMM surgery treated with PBS, DMM surgery treated with BMP-KI, or DMM surgery treated with ALK1-Fc. Average osteophyte volume was analyzed with Prism 9 Software (GraphPad) using two-way ANOVA and Tukey's multiple comparisons test post-hoc. MicroCT and data analysis was performed by an experienced investigator blinded to genotype/treatment. For each experimental group, five joint sections per animal were analyzed from the medial compartment. […] All quantifications were conducted in Fiji is Just ImageJ (FIJI, version 2.9.0). Quantified subchondral bone thickness was analyzed with Prism 9 Software (GraphPad) using two-way ANOVA and Tukey's multiple comparisons test post-hoc.
# adult growth plate = test: SOFG histology of proximal tibial growth plate in DMM mice; assay type: in vivo, mouse; details: week 8 after DMM surgery
# Description: FIG. 10. […] Sagittal sections of the proximal tibial growth plate were stained with Safranin-O/Fast Green (SOFG) to visualize proteoglycan (red) in the growth plate, subchondral bone (top blue), and trabecular bone (bottom blue) at week 8 after DMM or Sham surgery. […] Alk1^Col2 mice underwent DMM surgery (DMM+Alk1^Col2). WT control mice (lacking Col2a1-Cre) underwent sham surgery and received PBS treatment (Sham+PBS). (n=5/group).
# Knee joint samples were harvested and fixed in 4% Paraformaldehyde for 3 days, and subsequently decalcified in formic acid (Statlab; 1414-32) for 3 days and embedded in paraffin. Sagittal sections 7 micrometers in thickness were taken and stained using Safranin-O (Sigma-Aldrich; S8884-25G), fast green (Sigma-Aldrich; F7258-25G), and hematoxylin (Fisherbrand; 245-656) using a standard histology protocol. Images were taken with the Olympus BX60 brightfield microscope using a 10× objective lens. Representative sections throughout the medial and lateral portion of side were chosen for histological analysis, resulting in 5 sections being imaged for both portions of the joint.
# ALK3 = ALK3 (Homo sapiens, UniProt P36894); details: kinase assay; cited from earlier work
# Sequence of ALK3 (P36894 24-532, species assumed): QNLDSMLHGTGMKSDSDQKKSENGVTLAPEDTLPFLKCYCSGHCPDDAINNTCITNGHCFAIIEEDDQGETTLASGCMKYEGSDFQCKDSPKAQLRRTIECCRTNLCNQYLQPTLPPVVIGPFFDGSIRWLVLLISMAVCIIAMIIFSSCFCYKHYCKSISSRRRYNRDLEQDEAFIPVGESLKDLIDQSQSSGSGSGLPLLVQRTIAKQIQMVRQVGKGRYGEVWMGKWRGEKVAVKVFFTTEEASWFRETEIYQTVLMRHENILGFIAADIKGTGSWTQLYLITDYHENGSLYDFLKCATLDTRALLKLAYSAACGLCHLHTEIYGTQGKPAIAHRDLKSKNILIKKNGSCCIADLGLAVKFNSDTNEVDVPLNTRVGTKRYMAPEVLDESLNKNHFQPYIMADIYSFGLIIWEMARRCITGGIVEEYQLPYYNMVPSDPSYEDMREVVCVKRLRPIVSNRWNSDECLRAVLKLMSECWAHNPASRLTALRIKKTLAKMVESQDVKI
smiles,measurement,setting,value
COc1cc(-c2cc(-c3ccc(N4CCNCC4)cc3)cnc2C)cc(OC)c1OC [LDN-214117],EC50,[1],40 nM
same,total volume of the subchondral plates,"subchondral bone plate; week 8, microCT",no significant impact
same,thickness (thickening) of the subchondral bone plate,"subchondral bone plate; week 8, listed as BMP-KI",no significant impact; also recorded: no observed effect
same,impact on adult growth plate maintenance,adult growth plate,no obvious impact
same,IC50,ALK3,1170 nM
